US6358885B1, “Substituted phenylheterocyclic herbicides” (Mississippi State University, priority 1992, dated 2002)

Assays:
Experiment in all cases: Test F preemergence/postemergence greenhouse plant response rating 0 to 100
[1] = tested on: downy brome; format: in vivo, Bromus tectorum; settings: POSTEMERGENCE, 0 to 100 scale
Method in brief: (§1)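 Visual injury ratings compared treated plants with untreated controls roughly 21 to 28 days after application. Test compounds, in a non-phytotoxic solvent, went onto the soil surface before emergence or onto one-to-four-leaf plants. Preemergence used sandy loam; postemergence used a 60:40 sandy loam and potting mix blend.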

[2] = tested on: galium; format: in vivo, Galium aparine; settings: POSTEMERGENCE, 0 to 100 scale; for Galium (1) plant response rating: stage (1) two to three leaves; for Galium (2) plant response rating: stage (2) approximately four leaves or initial tillering
Method in brief: as §1

[3] = tested on: chickweed; format: in vivo, Stellaria media; settings: POSTEMERGENCE, 0 to 100 scale
Method in brief: as §1

[4] = tested on: wild oat; format: in vivo, Avena fatua; settings: POSTEMERGENCE, 0 to 100 scale; for Wild oat (1) plant response rating: stage (1) two to three leaves; for Wild oat (2) plant response rating: stage (2) approximately four leaves or initial tillering
Method in brief: as §1

[5] = tested on: lambsquarters; format: in vivo, Chenopodium album; settings: POSTEMERGENCE, 0 to 100 scale
Method in brief: as §1

[6] = tested on: winter barley; format: in vivo, Hordeum vulgare cv. ‘Igri’; settings: POSTEMERGENCE, 0 to 100 scale
Method in brief: as §1

[7] = tested on: blackgrass; format: in vivo, Alopecurus myosuroides; settings: POSTEMERGENCE, 0 to 100 scale; for Blackgrass (1) plant response rating: stage (1) two to three leaves; for Blackgrass (2) plant response rating: stage (2) approximately four leaves or initial tillering
Method in brief: as §1

[8] = tested on: spring wheat; format: in vivo, Triticum aestivum cv. ‘ERA’; settings: POSTEMERGENCE, 0 to 100 scale
Method in brief: as §1

[9] = tested on: wild buckwheat; format: in vivo, Polygonum convolvulus; settings: POSTEMERGENCE, 0 to 100 scale
Method in brief: as §1

[10] = tested on: speedwell; format: in vivo, Veronica persica; settings: POSTEMERGENCE, 0 to 100 scale
Method in brief: as §1

[11] = tested on: wild mustard; format: in vivo, Sinapis arvensis; settings: POSTEMERGENCE, 0 to 100 scale
Method in brief: as §1

[12] = tested on: kochia; format: in vivo, Kochia scoparia; settings: POSTEMERGENCE, 0 to 100 scale
Method in brief: as §1

[13] = tested on: winter wheat; format: in vivo, Triticum aestivum cv. ‘Talent’; settings: POSTEMERGENCE, 0 to 100 scale
Method in brief: as §1

[14] = tested on: wild radish; format: in vivo, Raphanus raphanistrum; settings: POSTEMERGENCE, 0 to 100 scale
Method in brief: as §1

C#CC(C)N1C(=O)COc2cc(F)c(-c3nn4c(c3Cl)CCCC4)cc21 (centres unmarked) [Compound 50]
Downy brome plant response rating ([1]; Rate 16 g/ha): 0
Downy brome plant response rating ([1]; Rate 32 g/ha): 0
Downy brome plant response rating ([1]; Rate 64 g/ha): 0
Downy brome plant response rating ([1]; Rate 125 g/ha): 0
Galium (1) plant response rating ([2]; Rate 16 g/ha): 100
Galium (2) plant response rating ([2]; Rate 16 g/ha): 100
Galium (1) plant response rating ([2]; Rate 32 g/ha): 100
Galium (2) plant response rating ([2]; Rate 32 g/ha): 100
Galium (1) plant response rating ([2]; Rate 64 g/ha): 100
Galium (2) plant response rating ([2]; Rate 64 g/ha): 100
Galium (1) plant response rating ([2]; Rate 125 g/ha): 100
Galium (2) plant response rating ([2]; Rate 125 g/ha): 100
Chickweed plant response rating ([3]; Rate 16 g/ha): 70
Chickweed plant response rating ([3]; Rate 32 g/ha): 100
Chickweed plant response rating ([3]; Rate 64 g/ha): 100
Chickweed plant response rating ([3]; Rate 125 g/ha): 100
Wild oat (1) plant response rating ([4]; Rate 16 g/ha): 0
Wild oat (2) plant response rating ([4]; Rate 16 g/ha): 0
Wild oat (1) plant response rating ([4]; Rate 32 g/ha): 0
Wild oat (2) plant response rating ([4]; Rate 32 g/ha): 0
Wild oat (1) plant response rating ([4]; Rate 64 g/ha): 0
Wild oat (2) plant response rating ([4]; Rate 64 g/ha): 0
Wild oat (1) plant response rating ([4]; Rate 125 g/ha): 0
Wild oat (2) plant response rating ([4]; Rate 125 g/ha): 0
Lambsquarters plant response rating ([5]; Rate 16 g/ha): 30
Lambsquarters plant response rating ([5]; Rate 32 g/ha): 50
Lambsquarters plant response rating ([5]; Rate 64 g/ha): 100
Lambsquarters plant response rating ([5]; Rate 125 g/ha): 100
Winter Barley plant response rating ([6]; Rate 16 g/ha): 0
Winter Barley plant response rating ([6]; Rate 32 g/ha): 0
Winter Barley plant response rating ([6]; Rate 64 g/ha): 0
Winter Barley plant response rating ([6]; Rate 125 g/ha): 50
Blackgrass (1) plant response rating ([7]; Rate 16 g/ha): 0
Blackgrass (2) plant response rating ([7]; Rate 16 g/ha): 0
Blackgrass (1) plant response rating ([7]; Rate 32 g/ha): 0
Blackgrass (2) plant response rating ([7]; Rate 32 g/ha): 0
Blackgrass (1) plant response rating ([7]; Rate 64 g/ha): 0
Blackgrass (2) plant response rating ([7]; Rate 64 g/ha): 0
Blackgrass (1) plant response rating ([7]; Rate 125 g/ha): 40
Blackgrass (2) plant response rating ([7]; Rate 125 g/ha): 20
Wheat (Spring) plant response rating ([8]; Rate 16 g/ha): 0
Wheat (Spring) plant response rating ([8]; Rate 32 g/ha): 0
Wheat (Spring) plant response rating ([8]; Rate 64 g/ha): 0
Wheat (Spring) plant response rating ([8]; Rate 125 g/ha): 10
Wild buckwheat plant response rating ([9]; Rate 16 g/ha): 40
Wild buckwheat plant response rating ([9]; Rate 32 g/ha): 100
Wild buckwheat plant response rating ([9]; Rate 64 g/ha): 100
Wild buckwheat plant response rating ([9]; Rate 125 g/ha): 100
Persn Speedwell plant response rating ([10]; Rate 16 g/ha): 100
Persn Speedwell plant response rating ([10]; Rate 32 g/ha): 100
Persn Speedwell plant response rating ([10]; Rate 64 g/ha): 100
Persn Speedwell plant response rating ([10]; Rate 125 g/ha): 100
Wild mustard plant response rating ([11]; Rate 16 g/ha): 70
Wild mustard plant response rating ([11]; Rate 32 g/ha): 70
Wild mustard plant response rating ([11]; Rate 64 g/ha): 100
Wild mustard plant response rating ([11]; Rate 125 g/ha): 100
Kochia plant response rating ([12]; Rate 16 g/ha): 100
Kochia plant response rating ([12]; Rate 32 g/ha): 100
Kochia plant response rating ([12]; Rate 64 g/ha): 100
Kochia plant response rating ([12]; Rate 125 g/ha): 100
Wheat (Winter) plant response rating ([13]; Rate 16 g/ha): 0
Wheat (Winter) plant response rating ([13]; Rate 32 g/ha): 0
Wheat (Winter) plant response rating ([13]; Rate 64 g/ha): 0
Wheat (Winter) plant response rating ([13]; Rate 125 g/ha): 0
Wild radish plant response rating ([14]; Rate 16 g/ha): 50
Wild radish plant response rating ([14]; Rate 32 g/ha): 50
Wild radish plant response rating ([14]; Rate 64 g/ha): 55
Wild radish plant response rating ([14]; Rate 125 g/ha): 70
